Laboratory results as given in publication PMC3722296 (PLoS ONE, 2013).
Entries after “also recorded” stand apart in the source; their conditions may differ. Where no end group is shown, it is not given here.

How the values were obtained:
[1] = test system: S. aureus S1; test: Antibiotic susceptibility, agar disc diffusion; assay type: cell-based, Staphylococcus aureus; details: agar disc diffusion method
Method: (§1) S1 was isolated from the blood of a patient and S2 was isolated from the sputum of a neonate. After isolation and identification, S. aureus strains were assessed for their susceptibility to various antibiotics, using the agar disc diffusion method. S1 was found Methicillin resistant (MRSA) and is also resistant to Amoxicillin, Oxacillin, Amikacin, Tobramycin, Fluoroquinolones, Erythromycin and Clindamycin. However, it was susceptible to Gentamicin, Synercid, Co-trimoxazole, Rifampicin, Fusidic acid, Vancomycin, Teicoplanin and Linezolid.

[2] = test system: S. aureus S2; test: Antibiotic susceptibility, agar disc diffusion; assay type: cell-based, Staphylococcus aureus; details: agar disc diffusion method
Method: as §1

[3] = test system: S. aureus; test: Antibacterial activity against S. aureus, (strains together or not specified); assay type: cell-based, Staphylococcus aureus
Method: (§2) Different S. aureus strains described above were first pre-cultured aerobically at 37°C for 20 h in a Mueller-Hinton-Broth (MHB) medium, pH 7.3 (Difco Laboratories, Detroit, MI). Bacteria were suspended at absorbance of 0.001 at 620 nm in the MHB medium. […] Ten µl final volumes (10–200 µg/mL) of synthetic peptides (LL-37, bCAT, hCAT and bCTL) were incubated in microtitration plates with 90 µl of a mid-logarithmic phase culture of bacteria, with a starting absorbance of 0.001 at 620 nm. In the initial inoculi, bacteria were quantified by the agar plate spreading method which was 5×10^5 colony forming units (CFU)/mL. Tetracycline (10 mg/L) and Cefotaxime (0.1 mg/L) were used as positive controls. Microbial growth was assessed by the increase of absorbance after 24 h incubation at 37°C., [29] The A620 nm value of control cultures growing in the absence of peptide and antibiotics was defined as 100% growth. A620 nm zero with the antibiotics (Tetracycline and Cefotaxime) was taken as 100% inhibition. Absence of bacterial growth was verified by agar plate spreading. Each assay was performed in triplicates.

[4] = S. aureus ATCC49775 culture supernatant with protease inhibitors (Pi+S49775); details: S. aureus ATCC49775, 37°C, up to 24 h
[5] = S. aureus S2 culture supernatant with protease inhibitors (Pi+S2); details: S. aureus S2 (MSSA), 37°C, up to 24 h
[6] = S. aureus S1 (MRSA) culture supernatant, MHB medium, filtered; details: 37°C, up to 24 h
[7] = S. aureus ATCC25923 culture supernatant (S25923), MHB medium, filtered; details: S. aureus ATCC25923, 37°C, up to 24 h
[8] = S. aureus ATCC25923 culture supernatant with protease inhibitors (Pi+S25923); details: S. aureus ATCC25923, 37°C, up to 24 h
[9] = S. aureus S1 culture supernatant with protease inhibitors (Pi+S1); details: S. aureus S1 (MRSA), 37°C, up to 24 h
[10] = S. aureus ATCC49775 culture supernatant (S49775), MHB medium, filtered; details: S. aureus ATCC49775, 37°C, up to 24 h
[11] = S. aureus S2 (MSSA) culture supernatant, MHB medium, filtered; details: 37°C, up to 24 h
[12] = test system: S. aureus ATCC25923; assay type: cell-based, Staphylococcus aureus; details: ATCC25923, 24 h, pH 7.3
Method: as §2
(§3) The MIC values (µg/mL) are reported as means of three independent experiments. To determine significance, between different peptides (rows) and bacterial strains (columns), one way ANOVA was used. Overall significance and correlation was evaluated by 4×4 factorial ANOVA for independent samples. Significance was accepted at p≤0.05.

[13] = test system: S. aureus ATCC49775; assay type: cell-based, Staphylococcus aureus; details: ATCC49775, 24 h, pH 7.3
Method: as §2, §3

[14] = test system: S. aureus S1 (MRSA); assay type: cell-based, Staphylococcus aureus; details: S1, 24 h, pH 7.3
Method: as §1, §2, §3

[15] = test system: S. aureus S2 (MSSA); assay type: cell-based, Staphylococcus aureus; details: S2, 24 h, pH 7.3
Method: as §1, §2, §3

[16] = test system: staphylococcal proteases released into bacterial supernatants; details: 37°C, 24 h; for degradation by four strain supernatants in presence of protease inhibitors: protease inhibitor cocktail + 100 µM 1–10 phenanthroline; for degradation by culture supernatant of S2 / degradation by culture supernatants S49775, S25923 and S1: no protease inhibitors, RP-HPLC 214 nm, sequencing, MALDI-TOF, triplicate wells
Method: S. aureus strains were precultured and plated on the agar plates and cultivated for 24 h at 37°C. After incubation, one colony per isolate was transferred to 10 mL of the MHB medium and incubated at 37°C for about 30 h to late stationary growth phase. After incubation, cultures were centrifuged at 10,000×g for 15 min and supernatants were filtered using a 0.22 µM Millex®-GV (Millipore, Carrigtwohill, Ireland) to eliminate bacteria. The supernatants were stored at −20°C until further use. In order to check sterility, 1 mL of each supernatant was incubated at 37°C for 48 h. Absence of a colony was interpreted as lack of viable bacteria.
(§4) Triplicate wells were treated for each concentration of peptide. In parallel, several controls were performed: with and without peptides in MHB medium.
For which, protease inhibitor cocktail (complete protease inhibitors except metalloproteases) (Roche Diagnostic GmbH, Mannheim, Germany) supplemented with 100 µM of 1–10 phenanthroline (metalloprotease inhibitor) (Sigma Aldrich GmbH, Steinheim, Germany) was added to bacterial supernatants before the addition of synthetic peptides. The whole suspension was incubated at 37°C for 24 h prior to being analyzed by RP-HPLC.
(§5) The synthetic peptides treated with bacterial supernatants and different controls including culture medium, bacterial supernatants, and synthetic peptides were separated using a Dionex HPLC system (Ultimate 3000; Sunnyvale, CA USA) on a Nucleosil reverse-phase 300–5C18-column (4×250 mm; particle size, 5 µm; porosity, 300 Å) (Macherey Nagel Hoerdt, France). Absorbance was monitored at 214 nm, and the solvent system consisted of 0.1% (v/v) TFA in water (solvent A) and 0.09% (v/v) TFA in 70% (v/v) acetonitrile-water (solvent B). Elution was performed at a flow rate of 700 µL/min, with the gradient as indicated on chromatograms. Fractions were collected with one min time interval. They were subsequently concentrated by evaporation by using a speed-vac, however not allowing them to dry completely.
The N-terminal sequence of purified peptides was determined by automatic Edman degradation analysis on a Procise microsequencer (Applied Biosystems, Courtaboeuf, France). Samples purified by HPLC were loaded on polybrene-treated glass-fiber filters. Phenylthiohydantoin-amino acids (Pth-Xaa) were identified by chromatography on a C18 column (PTH C-18, 2.1 mm×200 mm).
Mass determination was carried out on a Brucker BIFLEX™ Matrix-Assisted Laser Desorption Ionization – Time-Of-Flight mass spectrometer (MALDI-TOF) (equipped with the high resolution optics (SCOUT™) with X–Y multi-sample probe, a gridless reflector and with the HIMAS™ linear detector). With a maximum accelerating potential of 30 kV, the system can be operated either in linear or the reflective mode. Ionization was carried out with a 337-nm beam from a nitrogen laser with a repetition rate of 3 Hz. The output signal from the detector was digitized at a sampling rate of 250 MHz in linear mode and 500 MHz in reflector mode using a 1 GHz digital oscilloscope (Lecroy model). Brucker supplied software hosted in Sun sparcworkstation was used for data processing and the instrumental control. […] These studies were realized using the matrix α-cyano-4-hydroxycinnamic acid, obtained from Sigma, and prepared as a saturated solution in acetone. A total of 1–2 µl of the sample matrix aliquot solution was deposited on the probe and dried by ambient air. A thin layer matrix crystal was obtained after rapid spreading and evaporation. […] A micromolar analyte solution was applied to the matrix and allowed to dry under moderate vacuum. The whole preparation was washed by 1 μl of trifluoroacetic acid (0.5%) aqueous solution. This cleaning procedure helps remove remaining alkaline cations and often leads to an increase in sensitivity.

[17] = test system: human erythrocytes; details: cited from earlier work
Text: Due to continuous resistance development by S. aureus, the interest for natural AMPs is increasing because some of them display potent antibacterial activity. However, secondary reactions such as hemolytic activity, [36] limit their use as systemic anti-infective drugs. Until recently, no such reaction was reported for the antimicrobial Cgs-derived peptides in the literature. Several CgA-derived peptides were previously characterized to display antimicrobial properties, [9] however, data concerning killing of S. aureus is not reported. CAT was previously reported, to be active against diff ...

[18] = MHB medium; details: 37°C, up to 24 h
[19] = MHB medium without supernatant, 37°C, 24 h; RP-HPLC
Method: as §4, §5

With `NCC[C@H](O)C(=O)N[C@@H]1C[C@H](N)[C@@H](O[C@H]2O[C@H](CN)[C@@H](O)[C@H](O)[C@H]2O)[C@H](O)[C@H]1O[C@H]1O[C@H](CO)[C@@H](O)[C@H](N)[C@H]1O` [Amikacin] the “susceptibility of strain S1” value [1] was “resistant”.
For `CC1(C)S[C@@H]2[C@H](NC(=O)[C@H](N)c3ccc(O)cc3)C(=O)N2[C@H]1C(=O)O` [Amoxicillin], the “susceptibility of strain S1” value [1] was “resistant”.
For `CCC[C@@H]1C[C@@H](C(=O)N[C@@H]([C@H]2O[C@H](SC)[C@H](O)[C@@H](O)[C@H]2O)[C@H](C)Cl)N(C)C1` [Clindamycin], the “susceptibility of strain S1” value [1] was “resistant”.
For `CC[C@H]1OC(=O)[C@H](C)[C@@H](O[C@H]2C[C@@](C)(OC)[C@@H](O)[C@H](C)O2)[C@H](C)[C@@H](O[C@@H]2O[C@H](C)C[C@H](N(C)C)[C@H]2O)[C@](C)(O)C[C@@H](C)C(=O)[C@H](C)[C@@H](O)[C@]1(C)O` [Erythromycin], the “susceptibility of strain S1” value [1] was “resistant”.
For `CC(=O)O[C@H]1C[C@@]2(C)[C@@H](C[C@@H](O)[C@H]3[C@@]4(C)CC[C@@H](O)[C@@H](C)[C@@H]4CC[C@@]32C)/C1=C(\CCC=C(C)C)C(=O)O` [Fusidic acid], the “susceptibility of strain S1” value [1] was “susceptible”.
With `CNC(C)C1CCC(N)C(OC2C(N)CC(N)C(OC3OCC(C)(O)C(NC)C3O)C2O)O1` (centres unmarked) [Gentamicin] the “susceptibility of strain S1” value [1] was “susceptible”.
In the case of `CC(=O)NC[C@H]1CN(c2ccc(N3CCOCC3)c(F)c2)C(=O)O1` [Linezolid], the “susceptibility of strain S1” value [1] is reported as “susceptible”.
With `COc1cccc(OC)c1C(=O)N[C@@H]1C(=O)N2[C@@H]1SC(C)(C)[C@@H]2C(=O)O` [Methicillin] the “susceptibility of strain S2” value [2] was “susceptible” and the “susceptibility of strain S1” value [1] was “resistant”.
In the case of `Cc1onc(-c2ccccc2)c1C(=O)N[C@@H]1C(=O)N2[C@@H]1SC(C)(C)[C@@H]2C(=O)O` [Oxacillin], the “susceptibility of strain S1” value [1] is reported as “resistant”.
In the case of `CO[C@H]1/C=C/O[C@@]2(C)Oc3c(C)c(O)c4c(O)c(c(/C=N/N5CCN(C)CC5)c(O)c4c3C2=O)NC(=O)/C(C)=C\C=C\[C@H](C)[C@H](O)[C@@H](C)[C@@H](O)[C@@H](C)[C@H](OC(C)=O)[C@@H]1C` [Rifampicin], the “susceptibility of strain S1” value [1] is reported as “susceptible”.
In the case of `NC[C@H]1O[C@H](O[C@H]2[C@H](O)[C@@H](O[C@H]3O[C@H](CO)[C@@H](O)[C@H](N)[C@H]3O)[C@H](N)C[C@@H]2N)[C@H](N)C[C@@H]1O` [Tobramycin], the “susceptibility of strain S1” value [1] is reported as “resistant”.
In the case of `CN[C@H](CC(C)C)C(=O)N[C@H]1C(=O)N[C@@H](CC(N)=O)C(=O)N[C@H]2C(=O)N[C@H]3C(=O)N[C@H](C(=O)N[C@H](C(=O)O)c4cc(O)cc(O)c4-c4cc3ccc4O)[C@H](O)c3ccc(c(Cl)c3)Oc3cc2cc(c3O[C@@H]2O[C@H](CO)[C@@H](O)[C@H](O)[C@H]2O[C@H]2C[C@](C)(N)[C@H](O)[C@H](C)O2)Oc2ccc(cc2Cl)[C@H]1O` [Vancomycin], the “susceptibility of strain S1” value [1] is reported as “susceptible”.
For Co-trimoxazole, the “susceptibility of strain S1” value [1] was “susceptible”.
In the case of “FLE-RSMRLSFRARG [shorter peptide lacking the C-terminal end (YGFR) of CTL]”, the “concentration at which antibacterial activities are displayed” value ([3]; data not shown) is reported as 200 µg/mL.
For “FLE-RSMRLSFRARGYGFR [FLE-CTL, CTL derived peptide with a hydrophobic N-terminal end]”, the “antibacterial activity against S. aureus” value ([3]; at 400 µg/mL, recent experiments) was “inactive”.
For RSMRLSFRARGYGFR, the not cleaved [4] was “remains unaffected by S. aureus supernatants with or without protease inhibitors”, the not cleaved [5] was “remains unaffected by S. aureus supernatants with or without protease inhibitors” and the not cleaved [6] was “not degraded by any of the staphylococcal strains tested”. For the same molecule, the not cleaved [7] was “not degraded by any of the staphylococcal strains tested”, the not cleaved [8] was “remains unaffected by S. aureus supernatants with or without protease inhibitors” and the not cleaved [9] was “remains unaffected by S. aureus supernatants with or without protease inhibitors”. The not cleaved [10] was “not degraded by any of the staphylococcal strains tested” and the not cleaved [11] was “not degraded by any of the staphylococcal strains tested”.
Work on RSMRLSFRARGYGFR [bCTL, cateslytin] yielded an MIC [12] of 40 µg/mL, an MIC [13] of 37 µg/mL and an MIC [14] of 37 µg/mL. For the same molecule, the MIC [15] was 45 µg/mL, the “degradation by any of the staphylococcal strains tested (four supernatants)” value ([16]; ATCC49775, ATCC25923, S1, S2 supernatants, peptide at MIC concentration, RP-HPLC) was “not degraded” and the “degradation by four strain supernatants in presence of protease inhibitors” value ([16]; RP-HPLC) was “remains unaffected”. The “MIC value against different strains of S. aureus” value ([3]; across ATCC49775, ATCC25923, S1, S2) was 37 to 45 µg/mL and the hemolytic activity [17] was “not hemolytic”.
With RSMRLSFRARGYGFRGPGLQL the not cleaved [4] was “not cleaved by any of the four strain supernatants tested in presence of protease inhibitors”, the not cleaved [5] was “not cleaved by any of the four strain supernatants tested in presence of protease inhibitors” and the cleaved bond [6] was “L348-S349”. The cleaved bond [7] was “L348-S349”, the not cleaved [8] was “not cleaved by any of the four strain supernatants tested in presence of protease inhibitors” and the not cleaved [18] was “In MHB medium, bCAT was not processed”. For the same molecule, the not cleaved [9] was “not cleaved by any of the four strain supernatants tested in presence of protease inhibitors”, the cleaved bond [10] was “L348-S349” and the cleaved bond [11] was “S349-F350; also recorded: G356-F357”.
Molecule “RSMRLSFRARGYGFRGPGLQL [bCAT, catestatin]” has an MIC [12] of 100 µg/mL, an MIC [13] of 100 µg/mL and an MIC [14] of 100 µg/mL. For the same molecule, the MIC [15] was 115 µg/mL, the “degradation by culture supernatant of S2” value ([16]; peptide at MIC concentration) was “largely cleaved” and the “degradation by culture supernatants S49775, S25923 and S1” value ([16]; peptide at MIC concentration) was “processed”. For the same molecule, the “degradation by four strain supernatants in presence of protease inhibitors” value ([16]; RP-HPLC) was “not cleaved” and the “processing in MHB medium” value [19] was “not processed”.
“SSMKLSFRARAYGFRGPGPQL [hCAT, catestatin]” showed an MIC [12] of 135 µg/mL, an MIC [13] of 125 µg/mL and an MIC [14] of 130 µg/mL. For the same molecule, the MIC [15] was 150 µg/mL, the “degradation by culture supernatant of S2” value ([16]; peptide at MIC concentration) was “completely cleaved” and the “degradation by culture supernatants S49775, S25923 and S1” value ([16]; peptide at MIC concentration) was “partially processed”. For the same molecule, the “processing in MHB medium” value [19] was “not cleaved”.
In the case of SSMKLSFRARGYGFRGPGPQL, the cleaved bond [6] is reported as “L356-S357”, the cleaved bond [7] is reported as “L356-S357” and the not cleaved [18] is reported as “In presence of MHB medium, hCAT was not cleaved”. For the same molecule, the cleaved bond [10] was “L356-S357” and the cleaved bond [11] was “G364-F365; also recorded: S357-F358”.
For Teicoplanin, the “susceptibility of strain S1” value [1] was “susceptible”.
